Measured values taken from US20180272034A1, “USE OF CSA COMPOUNDS TO PREVENT MICROBIAL BUILD-UP OR FOULING OF MEDICAL IMPLANTS” (BRIGHAM YOUNG UNIVERSITY, priority 2017, published 2018).
≈ marks a conversion by molar mass, not a printed value. Blank lines part the entries; values can stand above or below the molecule they belong to.

Assays:
Staphylococcus aureus = conditions: mixed-species biofilms grown 22 hours, 20 hours of treatment
Experimental: (§1) Several CSA compounds were tested against Pseudomonas aeruginosa and Staphylococcus aureus mixed-species biofilms grown for an initial 22 hours and subjected to 20 hours of treatment.

Pseudomonas aeruginosa = conditions: mixed-species biofilms grown 22 hours, 20 hours of treatment
Experimental: as §1

[1] = tested on: Pseudomonas aeruginosa (PA01); experiment: Coated endotracheal tube segments, daily re-inoculation, growth in medium; type: cell-based; set-up: key to bacterial growth in medium, Day 1 / bacterial growth in medium, Day 2 / bacterial growth in medium, Day 3 / bacterial growth in medium, Day 4 / bacterial growth in medium, Day 5 / bacterial growth in medium, Day 6 / bacterial growth in medium, Day 7 / bacterial growth in medium, Day 10 / bacterial growth in medium, Day 8 / bacterial growth in medium, Day 9: N=no growth; G=growth; conditions: hydrogel coating 10% CSA-131 HCl, 3% citric acid, PA01 re-inoculated every 24 h
Experimental: A hydrogel coating containing 10% CSA-131 HCl and 3% citric acid, relative to the hydrogel solids, was tested for antibacterial efficacy using endotracheal tube segments (5.0 mm). These tube segments (surface area of ca. 1.5 cm^2) were dip coated and cured to give coatings of approximately 10 microns. Coated tube segments were washed in phosphate buffered saline (PBS) for varied amounts of time before testing. Antibacterial testing involved immersing tube segments in 10% TSB in PBS (1.0 mL) and inoculating with Pseudomonas aeruginosa (PA01)@10^6 colony forming units (CFU). Samples were incubated for 24 h, and bacterial growth in the medium was assayed visually (i.e., turbidity in the medium is caused by unrestricted bacterial growth). […] And the converse is true: if growth is supported in the medium that the device is colonized, to some extent.
After 24 h of incubation, tube segments were immersed in fresh growth media (10% TSB in PBS, 1 mL), re-inoculated, and incubated. […] Experiments were performed in triplicate. N=no growth, G=growth.
Antibacterial activity of a hydrogel coating (ca. 10 microns) containing CSA-131 2-NDSA (10% by weight relative to hydrogel solids) was determined as described in Example 8 using methicillin-resistant Staphylococcus aureus (MRSA) and Pseudomonas aeruginosa (PA01).

[2] = Hydrogel coating stability and reaction with ethylene oxide (ETO)
Experimental: Releases of CSA-131 from hydrogel-based coatings were investigated, including examining coating stability and reaction of the coating with ethylene oxide (ETO) during sterilization processes. […] To mask this reactivity, coatings were prepared including varies percentages of citric acid to form non-volatile salts of the CSA compound.
Using a jet mill (Fluid Energy), CSA-131 2-NDSA was milled to an average particle size of 200 nm.

SMILES: CCCCCCCCOC(=O)CC[C@@H](C)[C@H]1CC[C@H]2[C@@H]3[C@H](OC(=O)CCN)C[C@@H]4C[C@H](OC(=O)CCN)CC[C@]4(C)[C@H]3C[C@H](OC(=O)CCN)[C@]12C [CSA-44]
MBC S. aureus (Staphylococcus aureus): 3.25 µg/mL (≈ 4.43 µM) | MIC S. aureus (Staphylococcus aureus): 1.56 µg/mL (≈ 2.13 µM) | MBC P. aeruginosa (Pseudomonas aeruginosa): 6.25 µg/mL (≈ 8.51 µM) | MIC P. aeruginosa (Pseudomonas aeruginosa): 3.125 µg/mL (≈ 4.26 µM)

SMILES: CCCCCCCCNCCC[C@@H](C)[C@H]1CC[C@H]2[C@@H]3[C@H](OCCCN)C[C@@H]4C[C@H](OCCCN)CC[C@]4(C)[C@H]3C[C@H](OCCCN)[C@]12C [CSA-13]
MBC S. aureus (Staphylococcus aureus): 0.78 µg/mL (≈ 1.15 µM) | MIC S. aureus (Staphylococcus aureus): 0.78 µg/mL (≈ 1.15 µM) | MBC P. aeruginosa (Pseudomonas aeruginosa): 6.25 µg/mL (≈ 9.23 µM) | MIC P. aeruginosa (Pseudomonas aeruginosa): 3.125 µg/mL (≈ 4.62 µM)

SMILES: CC[C@H](C)[C@H](NC(=O)[C@H](CCCCN)NC(=O)[C@H](CCC(=O)O)NC(=O)[C@H](CCCCN)NC(=O)[C@H](CO)NC(=O)[C@H](CCCCN)NC(=O)[C@H](CCCNC(=N)N)NC(=O)[C@H](Cc1ccccc1)NC(=O)[C@H](Cc1ccccc1)NC(=O)[C@H](CC(=O)O)NC(=O)CNC(=O)[C@H](CC(C)C)NC(=O)[C@@H](N)CC(C)C)C(=O)NCC(=O)N[C@@H](CCCCN)C(=O)N[C@@H](CCC(=O)O)C(=O)N[C@@H](Cc1ccccc1)C(=O)N[C@@H](CCCCN)C(=O)N[C@@H](CCCNC(=N)N)C(=O)N[C@H](C(=O)N[C@H](C(=O)N[C@@H](CCC(N)=O)C(=O)N[C@@H](CCCNC(=N)N)C(=O)N[C@H](C(=O)N[C@@H](CCCCN)C(=O)N[C@@H](CC(=O)O)C(=O)N[C@@H](Cc1ccccc1)C(=O)N[C@@H](CC(C)C)C(=O)N[C@@H](CCCNC(=N)N)C(=O)N[C@@H](CC(N)=O)C(=O)N[C@@H](CC(C)C)C(=O)N[C@H](C(=O)N1CCC[C@H]1C(=O)N[C@@H](CCCNC(=N)N)C(=O)N[C@H](C(=O)N[C@@H](CCC(=O)O)C(=O)N[C@@H](CO)C(=O)O)[C@@H](C)O)C(C)C)[C@@H](C)CC)C(C)C)[C@@H](C)CC [LL-37, reference compound]
MBC S. aureus (Staphylococcus aureus): >200 µg/mL | MIC S. aureus (Staphylococcus aureus): >200 µg/mL | MBC P. aeruginosa (Pseudomonas aeruginosa): >200 µg/mL | MIC P. aeruginosa (Pseudomonas aeruginosa): >200 µg/mL

SMILES: CC(CCCOCCCN)C1CCC2C3C(OCCCN)CC4CC(OCCCN)CCC4(C)C3CC(OCCCN)C12C.Cl.Cl.Cl.Cl (stereo not drawn) [CSA-25]
MBC S. aureus (Staphylococcus aureus): 3.25 µg/mL | MIC S. aureus (Staphylococcus aureus): 1.56 µg/mL | MBC P. aeruginosa (Pseudomonas aeruginosa): 50 µg/mL | MIC P. aeruginosa (Pseudomonas aeruginosa): 25 µg/mL

SMILES: CCCCCCCCCCCCNCCC[C@@H](C)[C@H]1CC[C@H]2[C@@H]3[C@H](OCCCN)C[C@@H]4C[C@H](OCCCN)CC[C@]4(C)[C@H]3C[C@H](OCCCN)[C@]12C.Cl.Cl.Cl.Cl [CSA-131 HCl]
bacterial growth in medium, Day 1 ([1]; Unwashed): N | bacterial growth in medium, Day 2 ([1]; Unwashed): N | bacterial growth in medium, Day 3 ([1]; Unwashed): N | bacterial growth in medium, Day 4 ([1]; Unwashed): N | bacterial growth in medium, Day 5 ([1]; Unwashed): G | bacterial growth in medium, Day 6 ([1]; Unwashed): G | bacterial growth in medium, Day 7 ([1]; Unwashed): G | bacterial growth in medium, Day 1 ([1]; Wash Time 15 min in PBS): N | bacterial growth in medium, Day 2 ([1]; Wash Time 15 min in PBS): N | bacterial growth in medium, Day 3 ([1]; Wash Time 15 min in PBS): N | bacterial growth in medium, Day 4 ([1]; Wash Time 15 min in PBS): N | bacterial growth in medium, Day 5 ([1]; Wash Time 15 min in PBS): G | bacterial growth in medium, Day 6 ([1]; Wash Time 15 min in PBS): G | bacterial growth in medium, Day 7 ([1]; Wash Time 15 min in PBS): G | bacterial growth in medium, Day 1 ([1]; Wash Time 30 min in PBS): N | bacterial growth in medium, Day 2 ([1]; Wash Time 30 min in PBS): N | bacterial growth in medium, Day 3 ([1]; Wash Time 30 min in PBS): N | bacterial growth in medium, Day 4 ([1]; Wash Time 30 min in PBS): N | bacterial growth in medium, Day 5 ([1]; Wash Time 30 min in PBS): G | bacterial growth in medium, Day 6 ([1]; Wash Time 30 min in PBS): G | bacterial growth in medium, Day 7 ([1]; Wash Time 30 min in PBS): G | bacterial growth in medium, Day 1 ([1]; Wash Time 1 hour in PBS): N | bacterial growth in medium, Day 2 ([1]; Wash Time 1 hour in PBS): N | bacterial growth in medium, Day 3 ([1]; Wash Time 1 hour in PBS): N | bacterial growth in medium, Day 4 ([1]; Wash Time 1 hour in PBS): N | bacterial growth in medium, Day 5 ([1]; Wash Time 1 hour in PBS): G | bacterial growth in medium, Day 6 ([1]; Wash Time 1 hour in PBS): G | bacterial growth in medium, Day 7 ([1]; Wash Time 1 hour in PBS): G | mechanical integrity of coating on silicone tube segments ([2]; CSA-131 HCl 10% relative to coating solids, prolonged soaking in buffer): some flaking of the coating | ETO adduct formation ([2]; hydrogel coating with at least 3% (by weight relative to hydrogel solids) citric acid): eliminated | reaction with ETO during sterilization ([2]; tube segments coated with hydrogel containing CSA-131 HCl (10%)): substantial reaction, leading to ETO adducts

SMILES: C[C@H](CCCNCCCNCCCN)[C@H]1CC[C@H]2[C@@H]3[C@H](OCCCN)C[C@@H]4C[C@H](OCCCN)CC[C@]4(C)[C@H]3C[C@H](OCCCN)[C@]12C.Cl.Cl.Cl.Cl.Cl.Cl [CSA-54]
MBC S. aureus (Staphylococcus aureus): 25 µg/mL | MIC S. aureus (Staphylococcus aureus): 6.25 µg/mL | MBC P. aeruginosa (Pseudomonas aeruginosa): 100 µg/mL | MIC P. aeruginosa (Pseudomonas aeruginosa): 50 µg/mL

SMILES: CC(O)C1CCC2C3C(OCCCN)CC4CC(OCCCN)CCC4(C)C3CC(OCCCN)C12C.Cl.Cl.Cl (mixture of isomers) [CSA-11]
MBC S. aureus (Staphylococcus aureus): 50 µg/mL | MIC S. aureus (Staphylococcus aureus): 50 µg/mL | MBC P. aeruginosa (Pseudomonas aeruginosa): >200 µg/mL | MIC P. aeruginosa (Pseudomonas aeruginosa): >200 µg/mL

Second part, led by results:

MIC S. aureus (Staphylococcus aureus): 0.78 µg/mL | MIC P. aeruginosa (Pseudomonas aeruginosa): 3.125 µg/mL
SMILES: CCCCCCCCNC(=O)CCC(C)C1CCC2C3C(OCCCN)CC4CC(OCCCN)CCC4(C)C3CC(OCCCN)C12C.Cl.Cl.Cl (stereo not drawn) [CSA-192]
MBC S. aureus (Staphylococcus aureus): 1.56 µg/mL | MBC P. aeruginosa (Pseudomonas aeruginosa): 6.25 µg/mL

MIC S. aureus (Staphylococcus aureus): 3.125 µg/mL | MIC P. aeruginosa (Pseudomonas aeruginosa): 12.5 µg/mL
SMILES: CCCCCCCCCOC(=O)CCC(C)C1CCC2C3C(OC(=O)CCN)CC4CC(OC(=O)CCN)CCC4(C)C3CC(OC(=O)CCN)C12C.Cl.Cl.Cl (stereo not drawn) [CSA-145]
MBC S. aureus (Staphylococcus aureus): 3.125 µg/mL | MBC P. aeruginosa (Pseudomonas aeruginosa): 50 µg/mL

MIC S. aureus (Staphylococcus aureus): 3.125 µg/mL | MIC P. aeruginosa (Pseudomonas aeruginosa): 3.125 µg/mL
SMILES: CCCCCCOC(=O)CCC(C)C1CCC2C3C(OC(=O)CCN)CC4CC(OC(=O)CCN)CCC4(C)C3CC(OC(=O)CCN)C12C.Cl.Cl.Cl (stereo not drawn) [CSA-142]
MBC S. aureus (Staphylococcus aureus): 3.125 µg/mL | MBC P. aeruginosa (Pseudomonas aeruginosa): 3.125 µg/mL

MIC S. aureus (Staphylococcus aureus): 3.125 µg/mL | MIC P. aeruginosa (Pseudomonas aeruginosa): 12.5 µg/mL
SMILES: CCCCCCCCCCOC(=O)CCC(C)C1CCC2C3C(OC(=O)CCN)CC4CC(OC(=O)CCN)CCC4(C)C3CC(OC(=O)CCN)C12C.Cl.Cl.Cl (stereo not drawn) [CSA-144]
MBC S. aureus (Staphylococcus aureus): 3.125 µg/mL | MBC P. aeruginosa (Pseudomonas aeruginosa): 50 µg/mL

MIC S. aureus (Staphylococcus aureus): 1.56 µg/mL (≈ 2.21 µM) | MIC P. aeruginosa (Pseudomonas aeruginosa): 6.25 µg/mL (≈ 8.86 µM)
SMILES: CCCCCN(CCCCC)CCC[C@@H](C)[C@H]1CC[C@H]2[C@@H]3[C@H](OCCCN)C[C@@H]4C[C@H](OCCCN)CC[C@]4(C)[C@H]3C[C@H](OCCCN)[C@]12C [CSA-90]
MBC S. aureus (Staphylococcus aureus): 1.56 µg/mL (≈ 2.21 µM) | MBC P. aeruginosa (Pseudomonas aeruginosa): 6.25 µg/mL (≈ 8.86 µM)
